Measurements: patent publication US6949544B2, “Inhibitors of c-Jun N-terminal kinases (JNK) and other protein kinases” (Vertex Pharmaceuticals Incorporated, priority 2001, dated 2005)

What was measured:
Type in all cases: biochemical
[1] = biological target: T1, full length recombinant human Src kinase (Homo sapiens, UniProt P12931); assay: Src inhibition assay (33P incorporation into poly Glu-Tyr)
T1 construct: full length recombinant human Src kinase; purchased Upstate Biotechnology 14-117; host or cells: baculo viral cells (baculovirus expression)
T1 sequence (P12931 whole entry): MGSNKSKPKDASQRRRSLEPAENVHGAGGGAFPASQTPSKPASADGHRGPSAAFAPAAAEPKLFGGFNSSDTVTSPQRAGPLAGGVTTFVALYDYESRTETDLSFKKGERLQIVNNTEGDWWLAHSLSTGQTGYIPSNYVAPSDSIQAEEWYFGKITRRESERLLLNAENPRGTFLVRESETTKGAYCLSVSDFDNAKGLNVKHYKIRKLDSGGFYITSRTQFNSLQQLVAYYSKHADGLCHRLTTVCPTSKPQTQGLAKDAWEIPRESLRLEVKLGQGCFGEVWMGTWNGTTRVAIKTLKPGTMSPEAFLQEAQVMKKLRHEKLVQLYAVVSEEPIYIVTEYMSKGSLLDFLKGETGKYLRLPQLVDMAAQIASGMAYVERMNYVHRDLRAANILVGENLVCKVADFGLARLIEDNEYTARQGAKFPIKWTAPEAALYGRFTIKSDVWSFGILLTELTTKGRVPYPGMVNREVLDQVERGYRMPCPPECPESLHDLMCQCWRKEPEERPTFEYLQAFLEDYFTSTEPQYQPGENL
Method: The compounds were assayed as inhibitors of full length recombinant human Src kinase (from Upstate Biotechnology, cat. no. 14-117) expressed and purified from baculo viral cells. Src kinase activity was monitored by following the incorporation of ^33P from ATP into the tyrosine of a random poly Glu-Tyr polymer substrate of composition, Glu:Tyr=4:1 (Sigma, cat. no. P-0275). The following were the final concentrations of the assay components: 0.05 M HEPES, pH 7.6, 10 mM MgCl2, 2 mM DTT, 0.25 mg/ml BSA, 10 μM ATP (1-2 μCi ^33P-ATP per reaction), 5 mg/ml poly Glu-Tyr, and 1-2 units of recombinant human Src kinase. In a typical assay, all the reaction components with the exception of ATP were pre-mixed and aliquoted into assay plate wells. […] The assay plate was incubated at 30° C. for 10 min before initiating the reaction with ^33P-ATP. After 20 min of reaction, the reactions were quenched with 150 μl of 10% trichloroacetic acid (TCA) containing 20 mM Na3PO4. The quenched samples were then transferred to a 96-well filter plate (Whatman, UNI-Filter GF/F Glass Fiber Filter, cat no. 7700-3310) installed on a filter plate vacuum manifold. Filter plates were washed four times with 10% TCA containing 20 mM Na3PO4 and then 4 times with methanol. 200 μl of scintillation fluid was then added to each well. The plates were sealed and the amount of radioactivity associated with the filters was quantified on a TopCount scintillation counter.

[2] = biological target: Glycogen Synthase Kinase 3 (GSK-3) (Homo sapiens, UniProt P49841); assay: GSK-3 inhibition assay (standard coupled enzyme assay); conditions: 60 nM GSK-3, 10 μM ATP; read-out: GSK-3 Inhibitory Activity (Ki rating A-C)
Glycogen Synthase Kinase 3 (GSK-3), sequence (P49841 whole entry): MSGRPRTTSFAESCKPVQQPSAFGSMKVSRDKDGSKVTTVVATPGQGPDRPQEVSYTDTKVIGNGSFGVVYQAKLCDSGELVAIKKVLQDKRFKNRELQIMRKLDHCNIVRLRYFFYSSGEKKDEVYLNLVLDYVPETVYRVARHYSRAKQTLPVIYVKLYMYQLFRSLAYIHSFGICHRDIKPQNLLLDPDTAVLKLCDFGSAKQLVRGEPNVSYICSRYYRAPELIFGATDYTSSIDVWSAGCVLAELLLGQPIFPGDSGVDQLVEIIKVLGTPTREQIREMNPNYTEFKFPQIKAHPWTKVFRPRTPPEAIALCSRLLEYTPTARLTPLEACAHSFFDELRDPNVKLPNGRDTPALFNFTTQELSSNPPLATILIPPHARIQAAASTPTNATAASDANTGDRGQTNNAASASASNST
How it was run: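 Pyruvate kinase/lactate dehydrogenase-coupled assay with 60 nM GSK-3 and 300 μM HSSPHQp-SEDEEE peptide in HEPES pH 7.5; compound preincubated 5 min at 30 °C, reaction started with 10 μM ATP. NADH absorbance at 340 nm tracked over 5 min; IC50 from rates versus inhibitor concentration.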

[3] = biological target: T2, Lck kinase purified from bovine thymus (Bos taurus, UniProt Q3ZCM0); assay: Lck inhibition assay (33P incorporation into poly Glu-Tyr); conditions: 10 μM ATP; read-out: Activity in the Lck Inhibition Assay (Ki rating A-C)
T2 construct: Lck kinase purified from bovine thymus; purchased Upstate Biotechnology 14-106; host or cells: bovine thymus (tissue-purified)
T2 sequence (Q3ZCM0 1-509): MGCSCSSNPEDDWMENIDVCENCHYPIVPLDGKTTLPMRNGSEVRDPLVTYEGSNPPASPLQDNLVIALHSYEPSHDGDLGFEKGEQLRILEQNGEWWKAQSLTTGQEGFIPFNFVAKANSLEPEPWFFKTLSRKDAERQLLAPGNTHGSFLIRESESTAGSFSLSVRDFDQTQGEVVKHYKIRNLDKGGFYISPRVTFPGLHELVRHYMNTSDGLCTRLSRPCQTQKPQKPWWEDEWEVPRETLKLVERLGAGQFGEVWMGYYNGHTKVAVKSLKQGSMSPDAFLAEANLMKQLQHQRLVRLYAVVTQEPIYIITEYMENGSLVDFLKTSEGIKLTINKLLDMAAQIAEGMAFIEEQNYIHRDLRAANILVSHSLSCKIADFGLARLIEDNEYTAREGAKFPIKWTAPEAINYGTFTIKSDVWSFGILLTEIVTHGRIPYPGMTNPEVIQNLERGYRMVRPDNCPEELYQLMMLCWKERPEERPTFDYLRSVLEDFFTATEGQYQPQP
How it was run: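 Filter-binding radiometric assay of 33P transfer from ATP to poly Glu-Tyr (4:1, 5 mg/ml) by bovine thymus Lck in 0.05 M HEPES pH 7.6, 10 mM MgCl2, 2 mM DTT, 0.25 mg/ml BSA, 10 μM ATP. After 10 min at 30° C, reaction started with 33P-ATP, run 20 min, quenched with TCA; filter-bound radioactivity counted by scintillation.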

SMILES | Ki ([1]; 10 μM ATP, read-out: Activity in the SRC Inhibition Assay (Ki rating A-C)) [µM] | Ki [2] [µM] | Ki [3] [µM] | inhibition at 2 µM ([1]; at a 2 μM inhibitor concentration, read-out: Activity in the SRC Inhibition Assay (percent inhibition rating D-F)) [%]
COc1cc(-c2ccnc(Nc3ccc(N)cc3)n2)cc(OC)c1OC [Compound I-34] | > 1 | 0.1 to 1 | > 1 | 
COc1cc(-c2ccnc(Nc3cccc(N)c3)n2)cc(OC)c1OC [Compound I-57] |  | 0.1 to 1 | 0.1 to 1 | 24 to 66
